In article PMC9356275, “A quantitative high-throughput screen identifies compounds that lower expression of the SCA2-and ALS-associated gene ATXN2” (The Journal of Biological Chemistry, 2022):
Where a name gives a salt, the structure may show the parent alone. Read-outs that look alike come from different tables or passages of the source.

Assays:
Assay type in all cases: cell-based, human
ATXN2-luc [1] = experiment: MSSR pilot screen: ATXN2-luc luciferase assay (Bright-Glo) in H2 cells, single 10 μM dose; conditions: for SD from mean (ATXN2-luc, Z-score): H2 cells, single dose (title: 10 μM compound), overnight; for ¦Score/1SD¦: absolute score divided by 1SD (0.891 or 0.9)
H2 and S1 cells = experiment: Paired MTT viability assay, average of H2 and S1 cells (1 and 10 uM); conditions: Homo sapiens
From the text: (§1) Supplement mmc2.xlsx, sheet "43 annotated compounds"

ATXN2-luc [2] = experiment: MSSR hit retest: ATXN2-luc luciferase assay, average of H2 and S1 cells (1 and 10 uM); conditions: Homo sapiens; for activity at 1 µM: read-out: H2&S1 ave luc 1uM; for activity at 10 µM: head line r3 10uM; for activity at 10 µM / activity: read-out: H2&S1 ave luc 10uM
From the text: as §1

ATXN2-luc [3] = experiment: NCATS qHTS (LOPAC pilot, primary and confirmation): ATXN2-luc in S2 cells, 1536-well, Steady-Glo; conditions: for AC50: Homo sapiens; for AC50 / Efficacy / Inf Activity: LOPAC library screening optimization; for Efficacy / Inf Activity: curve-fit parameter
Method: We next performed a pilot screen assay to optimize the 1536-well qHTS using S2 cells. […] Cytotoxicity was determined using a multiplexed viability assay (CellTiter-Fluor, a fluorescence-based viability assay using Gly-Phe-7-amino-4-trifluoromethylcoumarin substrate).
CellTiter-Fluor was used to determine compound effect on cell viability, and Steady-Glo was used to measure luciferase in a multiplexed assay.
The primary assay was conducted at the NCATS NIH Chemical Genomics Center laboratory. About 4 μl of S2 cell suspension in phenol red–free DMEM was dispensed into wells of 1536-well assay plates. […] Next, SteadyGlo luciferase substrate detection reagent (3 μl) was added to each well and incubated for an additional 5 min at room temperature. Luminescence was then measured on the ViewLux imager equipped with clear filters using a 2 s exposure. All screening operations were performed on a fully integrated robotic system (Kalypsys) containing one RX-130 and two RX-90 anthropomorphic robotic arms (Stäubli). Vehicle-only plates, with DMSO being pin-transferred to columns 5 to 48, were inserted uniformly at the beginning and the end of each library in order to monitor and record any shifts in assay performance.

[4] = pilot screen at 10 µM compound, H2 cells expressing ATXN2-luc
[5] = 1 uM compound, read-out: H2&S1 ave MTT 1uM
[6] = 10 uM compound, read-out: H2&S1 ave MTT 10uM
[7] = 1 uM compound, average of H2 and S1 cells
[8] = read-out: H2&S1 ave MTT 1uM, 1 uM compound
[9] = read-out: H2&S1 ave MTT 10uM, 10 uM compound
[10] = pilot screen, H2 cells expressing ATXN2-luc, single dose printed as 10 μM compound
[11] = logarithm of AC50 (negative values), read-out: Log AC50 (converted)

Row | Compound | SD from mean (ATXN2-luc, Z-score) (ATXN2-luc [1]) | SD from mean (pilot screen) (ATXN2-luc [1]; pilot screen) | SD from mean (pilot screen) (ATXN2-luc [1]; [4]) | ¦Score/1SD¦ (ATXN2-luc [1]; pilot screen) | viability at 1 µM (H2 and S1 cells; [5]) | viability at 10 µM (H2 and S1 cells; [6]) | activity at 1 µM (ATXN2-luc [2]; [7]) | activity at 10 µM (ATXN2-luc [2]; average of H2 and S1 cells) | viability at 1 µM (H2 and S1 cells; [8]) | viability at 10 µM (H2 and S1 cells; [9]) | activity at 1 µM (ATXN2-luc [2]) | activity (ATXN2-luc [2]) | SD from mean (pilot screen) (ATXN2-luc [1]; [10]) | AC50 (ATXN2-luc [3]; [11]) | AC50 (ATXN2-luc [3]; read-out: AC50) | Efficacy (ATXN2-luc [3]) | Inf Activity (ATXN2-luc [3]) | Curve Class (ATXN2-luc [3]; LOPAC library (1,280 compounds) screening optimization, signed sub-classes (-1.1, -2.2, -3 ...))
1 | CC[C@H]1CN2CCc3cc(OC)c(OC)cc3[C@@H]2C[C@@H]1C[C@H]1NCCc2cc(OC)c(OC)cc21 [Emetine dihydrochloride] | -4.840 SD | -4.840 SD | -4.840 | 5.43 | 59.7% | 58.1% | 18% | 19% | – | – | – | – | – | – | – | – | – | –
2 | C[C@H]1O[C@@H](O[C@H]2[C@@H](O)C[C@H](O[C@H]3[C@@H](O)C[C@H](O[C@H]4CC[C@@]5(C)[C@H](CC[C@@H]6[C@@H]5CC[C@]5(C)[C@@H](C7=CC(=O)OC7)CC[C@]65O)C4)O[C@@H]3C)O[C@@H]2C)C[C@H](O)[C@@H]1O [DIGITOXIN] | -4.100 SD | -4.100 SD | -4.100 | 4.56 | – | – | – | – | 34.3% | 49.1% | 27% | 19% | – | – | – | – | – | –
3 | CO[C@H]1C[C@H](O[C@H]2CC[C@]3(C)[C@H]4CC[C@]5(C)[C@@H](C6=CC(=O)OC6)CC[C@]5(O)[C@@H]4CC[C@]3(O)C2)O[C@H](C)[C@H]1O [PERIPLOCYMARIN] | -2.759 SD | -2.759 SD | – | 3.07 | – | – | – | – | 58.7% | 37.1% | 75% | 17% | -2.759 | – | – | – | – | –
4 | C[C@]12CC[C@H](O)C[C@H]1CC[C@@H]1[C@@H]2CC[C@]2(C)[C@@H](C3=CC(=O)OC3)CC[C@]12O [Digitoxigenin] | -3.629 SD | -3.629 SD | -3.629 | 4.07 | 81.6% | 74.8% | 38% | 13% | – | – | – | – | – | – | – | – | – | –
5 | CO[C@H]1[C@H](O)[C@H](O[C@H]2CC[C@@]3(C=O)[C@H](CC[C@@H]4[C@@H]3CC[C@]3(C)[C@@H](C5=CC(=O)OC5)CC[C@]43O)C2)O[C@@H](C)[C@@H]1O [PERUVOSIDE] | -4.038 SD | -4.038 SD | -4.038 | 4.49 | – | – | – | – | 47.5% | 60% | 15% | 12% | – | – | – | – | – | –
6 | Br.C[C@H]1C2Cc3ccc(O)cc3[C@]1(C)CCN2CCc1ccccc1 (single isomer, unassigned; (-)) [(-)-Phenazocine hydrobromide] | – | – | – | – | – | – | – | – | – | – | – | – | – | 35.5 µM | 35.5 µM | -71.0942 | -66.3244 | –
7 | COC(=O)C1=C(C)NC(C)=C(C(=O)OCCN(C)Cc2ccccc2)C1c1cccc([N+](=O)[O-])c1 (centres unmarked) [NICARDIPINE] | -2.782 SD | -2.782 SD | – | 3.12 | 140% | 87% | 112% | 61% | – | – | – | – | -2.782 | – | – | – | – | –
8 | CNCC[C@@H](Oc1ccccc1C)c1ccccc1 [Tomoxetine] | – | – | – | – | – | – | – | – | – | – | – | – | – | 28.2 µM | 28.2 µM | -86.2041 | -86.6862 | -2.2
9 | C[n+]1cc2c3c(ccc2c2ccc4cc5c(cc4c21)OCO5)OCO3 [Sanguinarine] | -2.689 SD | -2.689 SD | – | 3.02 | – | – | – | – | 103% | 114% | 127% | 160% | -2.689 | – | – | – | – | –
10 | O=C(Cc1ccc(Cl)c(Cl)c1)N1CCCCC1CN1CCCC1 (centres unmarked) [BRL 52537 hydrochloride] | – | – | – | – | – | – | – | – | – | – | – | – | – | 35.5 µM | 35.5 µM | -82.8908 | -85.8462 | –
11 | CC[C@H](O)C(C[C@H](C)N(C)C)(c1ccccc1)c1ccccc1.Cl [(+)-alpha-Methadol hydrochloride] | – | – | – | – | – | – | – | – | – | – | – | – | – | 35.5 µM | 35.5 µM | -65.8804 | -66.2609 | –
12 | CC[C@@H](O)C(C[C@@H](C)N(C)C)(c1ccccc1)c1ccccc1.Cl [(-)-alpha-Methadol hydrochloride] | – | – | – | – | – | – | – | – | – | – | – | – | – | 31.6 µM | 31.6 µM | -53.231 | -52.9785 | –
